Experimental data taken from patent US11045457B2, “Piperidinyl-3-(aryloxy)propanamides and propanoates” (priority 2018, dated 2021).

Key:
SSTR4 [1] = biological target: T1, SSTR4 (Homo sapiens (Human), UniProt P31391); assay: Inhibition of forskolin stimulated cAMP in CHO-K1 cells overexpressing SSTR4; format: cell-based; settings: for EC50: read-out: SSTR4 Activity pEC50 (converted)
How it was run: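 Read-out is a HTRF LANCE Ultra cAMP competition using Eu-labelled streptavidin and biotin-cAMP, incubated 60 min at room temperature. It followed a 30 min room-temperature exposure of Kreb's Ringer-washed cells to compound plus forskolin. Potency is expressed as pEC50.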

SSTR4 [2] = biological target: T1, SSTR4; assay: SSTR4 I-125 somatostatin competition binding assay (membranes from CHO-K1 cells overexpressing SSTR4); settings: competition with I-125 labeled somatostatin; for IC50: read-out: SSTR4 Binding pIC50 (converted)
SSTR1 = SSTR1 (Homo sapiens (Human), UniProt P30872); assay: SSTR1 I-125 somatostatin competition binding assay for selectivity versus SSTR4 (membranes from CHO-K1 cells overexpressing SSTR1); settings: for SSTR1 Binding pIC50: competition with I-125 labeled somatostatin, CHO-K1 SSTR1 membranes;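 as to all read-outs here: Filter-based radioligand binding, bound label counted by scintillation after 60 min incubation at room temperature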
Chain of SSTR1 (P30872 whole entry): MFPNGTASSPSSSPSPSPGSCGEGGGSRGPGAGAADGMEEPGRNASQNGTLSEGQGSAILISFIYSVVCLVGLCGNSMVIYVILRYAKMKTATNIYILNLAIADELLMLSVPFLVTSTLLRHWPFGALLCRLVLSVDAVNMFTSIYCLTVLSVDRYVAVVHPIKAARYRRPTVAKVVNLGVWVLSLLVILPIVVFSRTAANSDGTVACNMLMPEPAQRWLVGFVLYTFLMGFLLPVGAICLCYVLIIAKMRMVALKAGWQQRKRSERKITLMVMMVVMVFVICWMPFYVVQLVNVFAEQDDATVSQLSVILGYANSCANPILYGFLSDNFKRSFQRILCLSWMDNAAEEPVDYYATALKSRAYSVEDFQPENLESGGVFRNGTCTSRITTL
Procedure: Membranes from CHO-K1 cells overexpressing SSTR1 are purchased from Perkin Elmer (catalog number ES-520-M400UA). […] Then 10 μg of SSTR1 membranes in 50 μL assay buffer are added per well. The plate is incubated for 60 minutes at room temperature. […] The contents of the assay plate are transferred to filters with a TomTech harvester and washed 5 times with 20 mM HEPES, 100 mM NaCl. […] The scintillator sheets are melted to the filters using a heat block. The filters are then read in a MicroBeta scintillation counter. Binding Ki curves are generated using Activity Base for Screening Data Management and the results are reported as pIC50.

T1 sequence (P31391 whole entry): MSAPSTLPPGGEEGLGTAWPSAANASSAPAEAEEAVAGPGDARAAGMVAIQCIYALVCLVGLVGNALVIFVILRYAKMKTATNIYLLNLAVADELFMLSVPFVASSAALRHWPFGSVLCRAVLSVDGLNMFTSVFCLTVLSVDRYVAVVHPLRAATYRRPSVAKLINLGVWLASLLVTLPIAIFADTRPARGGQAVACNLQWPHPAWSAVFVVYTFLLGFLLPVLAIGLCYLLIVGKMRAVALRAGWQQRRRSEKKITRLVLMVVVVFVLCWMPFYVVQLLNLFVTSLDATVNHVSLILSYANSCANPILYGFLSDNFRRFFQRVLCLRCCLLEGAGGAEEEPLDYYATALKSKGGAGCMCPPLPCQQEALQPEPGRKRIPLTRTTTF

EC50 (SSTR4 [1]) [nM]	IC50 (SSTR4 [2]) [nM]	IC50 (SSTR1) [nM]	SMILES	SSTR4 Activity pEC50 (SSTR4 [1])	SSTR4 Binding pIC50 (SSTR4 [2])	SSTR1 Binding pIC50 (SSTR1)
15.8	63.1	3160	CC[C@@H]1CN(C)CC[C@H]1NC(=O)C(C)(C)COc1ncc(C)cc1C (racemic) [Example 128, trans-3-((3,5-dimethylpyridin-2-yl)oxy)-N-(3-ethyl-1-methylpiperidin-4-yl)-2,2-dimethylpropanamide]			
126	1580	50100	CN(C(=O)C(C)(C)COc1ncccc1C(F)(F)F)[C@@H]1CCNC[C@H]1c1ccccc1 (racemic) [Example 162, trans-N,2,2-trimethyl-N-(3-phenylpiperidin-4-yl)-3-((3-(trifluoromethyl)pyridin-2-yl)oxy)propanamide]			
31.6	158	5010	C[C@@H]1CN(C)C[C@H]1NC(=O)C(C)(C)COc1ncccc1C(F)(F)F (racemic) [Example 165, N-(trans-1,4-dimethylpyrrolidin-3-yl)-2,2-dimethyl-3-((3-(trifluoromethyl)pyridin-2-yl)oxy)propanamide]			
25.1	158	15800	Cc1ccccc1[C@@H]1CNCC[C@H]1OC(=O)C(C)(C)COc1ncccc1C(F)(F)F (racemic) [Example 168, trans-3-(o-tolyl)piperidin-4-yl 2,2-dimethyl-3-((3-(trifluoromethyl)pyridin-2-yl)oxy)propanoate]			
12.6	2000	39800	Cc1ncccc1[C@@H]1CNCC[C@H]1N(C)C(=O)C(C)(C)COc1ncccc1C(F)(F)F (racemic) [Example 172, N,2,2-trimethyl-N-(trans-3-(2-methylpyridin-3-yl)piperidin-4-yl)-3-((3-(trifluoromethyl)pyridin-2-yl)oxy)propanamide]			
15.8	398	3160	C[C@@H]1CN(C)C[C@H]1NC(=O)C(C)(C)COc1ncccc1C1CC1 (racemic) [Example 181, 3-((3-cyclopropylpyridin-2-yl)oxy)-N-(trans-1,4-dimethylpyrrolidin-3-yl)-2,2-dimethylpropanamide]			
31.6	794	12600	Cc1cccnc1OCC(C)(C)C(=O)N[C@@H]1CN(C)C[C@H]1C (racemic) [Example 182, N-(trans-1,4-dimethylpyrrolidin-3-yl)-2,2-dimethyl-3-((3-methylpyridin-2-yl)oxy)propanamide]			
31.6	126	39800	C[C@@H]1CN(C)CC[C@H]1NC(=O)C(F)(F)COc1ncccc1OC(F)(F)F (racemic) [Example 200, N-(trans-1,3-dimethylpiperidin-4-yl)-2,2-difluoro-3-((3-(trifluoromethoxy)pyridin-2-yl)oxy)propanamide]			
			CC(C)[C@@H]1CN(C)C[C@H]1NC(=O)C(C)(C)COc1ncccc1OC(F)(F)F (relative stereo) [Example 16, trans-N-(4-isopropyl-1-methylpyrrolidin-3-yl)-2,2-dimethyl-3-((3-(trifluoromethoxy)pyridin-2-yl)oxy)propanamide]	7.8	7.2	5.5
			Cc1cccnc1OCC(C)(C)C(=O)N[C@@H]1CCN(C)C[C@H]1C (relative stereo) [Example 17, trans-N-(1,3-dimethylpiperidin-4-yl)-2,2-dimethyl-3-((3-methylpyridin-2-yl)oxy)propanamide]	7.7	6.7	4.7
			Cc1cccnc1OCC(C)(C)C(=O)N[C@@H]1CN(C)C[C@H]1c1cnn(C)c1 (relative stereo) [Example 18, trans-2,2-dimethyl-N-(1-methyl-4-(1-methyl-1H-pyrazol-4-yl)pyrrolidin-3-yl)-3-((3-methylpyridin-2-yl)oxy)propanamide]	7.1	6.0	5.1
			CN1C[C@@H](NC(=O)C(C)(C)COc2ncccc2C(F)(F)F)[C@H](c2cnn(C)c2)C1 (relative stereo) [Example 19, trans-2,2-dimethyl-N-(1-methyl-4-(1-methyl-1H-pyrazol-4-yl)pyrrolidin-3-yl)-3-((3-(trifluoromethyl)pyridin-2-yl)oxy)propanamide]	7.7	6.8	6.1
			CN1C[C@@H](NC(=O)C(C)(C)COc2ncccc2C2CC2)[C@H](c2cnn(C)c2)C1 (relative stereo) [Example 22, trans-3-((3-cyclopropylpyridin-2-yl)oxy)-2,2-dimethyl-N-(1-methyl-4-(1-methyl-1H-pyrazol-4-yl)pyrrolidin-3-yl)propanamide]	7.9	7.0	6.0
			Cc1cccnc1OCC(C)(C)C(=O)N[C@@H]1CN(C)C[C@H]1c1cn(C)nc1C (relative stereo) [Example 23, trans-N-(4-(1,3-dimethyl-1H-pyrazol-4-yl)-1-methylpyrrolidin-3-yl)-2,2-dimethyl-3-((3-methylpyridin-2-yl)oxy)propanamide]	8.0	6.6	5.8
			Cc1nn(C)cc1[C@@H]1CN(C)C[C@H]1NC(=O)C(C)(C)COc1ncccc1C1CC1 (relative stereo) [Example 24, trans-3-((3-cyclopropylpyridin-2-yl)oxy)-N-(4-(1,3-dimethyl-1H-pyrazol-4-yl)-1-methylpyrrolidin-3-yl)-2,2-dimethylpropanamide]	8.3	7.0	6.4
			Cc1nn(C)cc1[C@@H]1CN(C)C[C@H]1NC(=O)C(C)(C)COc1ncccc1C(F)(F)F (relative stereo) [Example 25, trans-N-(4-(1,3-dimethyl-1H-pyrazol-4-yl)-1-methylpyrrolidin-3-yl)-2,2-dimethyl-3-((3-(trifluoromethyl)pyridin-2-yl)oxy)propanamide]	8.3	7.0	6.4
			Cc1cccnc1OCC(C)(C)C(=O)N[C@@H]1CN(C)C[C@H]1c1cnn(C)c1C (relative stereo) [Example 26, trans-N-(4-(1,5-dimethyl-1H-pyrazol-4-yl)-1-methylpyrrolidin-3-yl)-2,2-dimethyl-3-((3-methylpyridin-2-yl)oxy)propanamide]	8.6	7.3	6.1
			Cc1c([C@@H]2CN(C)C[C@H]2NC(=O)C(C)(C)COc2ncccc2C2CC2)cnn1C (relative stereo) [Example 27, trans-3-((3-cyclopropylpyridin-2-yl)oxy)-N-(4-(1,5-dimethyl-1H-pyrazol-4-yl)-1-methylpyrrolidin-3-yl)-2,2-dimethylpropanamide]	8.9	7.6	6.9
			Cc1c([C@@H]2CN(C)C[C@H]2NC(=O)C(C)(C)COc2ncccc2C(F)(F)F)cnn1C (relative stereo) [Example 28, trans-N-(4-(1,5-dimethyl-1H-pyrazol-4-yl)-1-methylpyrrolidin-3-yl)-2,2-dimethyl-3-((3-(trifluoromethyl)pyridin-2-yl)oxy)propanamide]	8.8	7.7	6.8
			Cc1nn(C)cc1[C@@H]1CN(C)C[C@H]1NC(=O)C(C)(C)COc1ncccc1OC(F)(F)F (relative stereo) [Example 29, trans-N-(4-(1,3-dimethyl-1H-pyrazol-4-yl)-1-methylpyrrolidin-3-yl)-2,2-dimethyl-3-((3-(trifluoromethoxy)pyridin-2-yl)oxy)propanamide]	8.4	7.4	6.4
			Cc1c([C@@H]2CN(C)C[C@H]2NC(=O)C(C)(C)COc2ncccc2OC(F)(F)F)cnn1C (relative stereo) [Example 30, trans-N-(4-(1,5-dimethyl-1H-pyrazol-4-yl)-1-methylpyrrolidin-3-yl)-2,2-dimethyl-3-((3-(trifluoromethoxy)pyridin-2-yl)oxy)propanamide]	9.0	7.8	6.9
			C[C@H]1C[C@@H](NC(=O)C(C)(C)COc2ncccc2OC(F)(F)F)CCN1C (relative stereo) [Example 136, cis-N-(1,2-dimethylpiperidin-4-yl)-2,2-dimethyl-3-((3-(trifluoromethoxy)pyridin-2-yl)oxy)propanamide]	8.1	7.1	4.8
			Cc1ccccc1[C@@H]1CNCC[C@H]1N(C)C(=O)C(C)(C)COc1ncccc1C(F)(F)F (relative stereo) [Example 155, N,2,2-trimethyl-N-(trans-3-(o-tolyl)piperidin-4-yl)-3-((3-(trifluoromethyl)pyridin-2-yl)oxy)propanamide]	8.0	7.2	5.4
			Cc1ccccc1[C@@H]1CNCC[C@@H]1N(C)C(=O)C(C)(C)COc1ncccc1C(F)(F)F (relative stereo) [Example 156, N,2,2-trimethyl-N-(cis-3-(o-tolyl)piperidin-4-yl)-3-((3-(trifluoromethyl)pyridin-2-yl)oxy)propanamide]	7.2	6.4	4.6
			Cc1ccccc1[C@@H]1CNCC[C@H]1NC(=O)C(C)(C)COc1ncccc1C(F)(F)F (relative stereo) [Example 157, 2,2-dimethyl-N-(trans-3-(o-tolyl)piperidin-4-yl)-3-((3-(trifluoromethyl)pyridin-2-yl)oxy)propanamide]	9.9	8.8	7.0
